The target of data set [1] is baculovirus-expressed ALK (Homo sapiens, UniProt Q9UM73). Nature of the data set: ALK kinase inhibition, TRF/ELISA. Format: biochemical. To be noted: read-out: ALK Potency. Put shortly:
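Plates were coated with GST-PLC-γ substrate (10 μg/mL) and the reaction was started with 30 ng/mL ALK, running 15 min at 37° C. Phosphotyrosine was detected by time-resolved fluorescence with Eu-labeled PT66 antibody. IC50s came from variable-slope sigmoidal fits of percent inhibition versus log concentration.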
(In an ELISA, binding on a coated surface is turned into a signal by an enzyme label.)

For data set [2], the target named is baculovirus-expressed JAK2 kinase (Homo sapiens, UniProt O60674). Briefly: biochemical. Put shortly:
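Time-resolved fluorescence kinase assay using 15 ng/mL baculovirus-expressed JAK2 on Neutravidin-captured biotinylated 15-mer peptide substrate, reaction 20 min at room temperature. IC50 from percent inhibition versus log concentration, sigmoidal variable-slope fit.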

[3] abbreviates: 0.2 μM ATP, read-out: JAK2 Potency.

In patent US9238656B2, “Imidazo[4,5-b]pyridine derivatives as ALK and JAK modulators for the treatment of proliferative disorders” (priority 2012, dated 2016) one finds IC50 and melting point data, which are given here for 22 compounds.

Where a name gives a salt, the structure may show the parent alone. Read-outs that look alike come from different tables or passages of the source.

baculovirus-expressed ALK, sequence (Q9UM73 19-1620): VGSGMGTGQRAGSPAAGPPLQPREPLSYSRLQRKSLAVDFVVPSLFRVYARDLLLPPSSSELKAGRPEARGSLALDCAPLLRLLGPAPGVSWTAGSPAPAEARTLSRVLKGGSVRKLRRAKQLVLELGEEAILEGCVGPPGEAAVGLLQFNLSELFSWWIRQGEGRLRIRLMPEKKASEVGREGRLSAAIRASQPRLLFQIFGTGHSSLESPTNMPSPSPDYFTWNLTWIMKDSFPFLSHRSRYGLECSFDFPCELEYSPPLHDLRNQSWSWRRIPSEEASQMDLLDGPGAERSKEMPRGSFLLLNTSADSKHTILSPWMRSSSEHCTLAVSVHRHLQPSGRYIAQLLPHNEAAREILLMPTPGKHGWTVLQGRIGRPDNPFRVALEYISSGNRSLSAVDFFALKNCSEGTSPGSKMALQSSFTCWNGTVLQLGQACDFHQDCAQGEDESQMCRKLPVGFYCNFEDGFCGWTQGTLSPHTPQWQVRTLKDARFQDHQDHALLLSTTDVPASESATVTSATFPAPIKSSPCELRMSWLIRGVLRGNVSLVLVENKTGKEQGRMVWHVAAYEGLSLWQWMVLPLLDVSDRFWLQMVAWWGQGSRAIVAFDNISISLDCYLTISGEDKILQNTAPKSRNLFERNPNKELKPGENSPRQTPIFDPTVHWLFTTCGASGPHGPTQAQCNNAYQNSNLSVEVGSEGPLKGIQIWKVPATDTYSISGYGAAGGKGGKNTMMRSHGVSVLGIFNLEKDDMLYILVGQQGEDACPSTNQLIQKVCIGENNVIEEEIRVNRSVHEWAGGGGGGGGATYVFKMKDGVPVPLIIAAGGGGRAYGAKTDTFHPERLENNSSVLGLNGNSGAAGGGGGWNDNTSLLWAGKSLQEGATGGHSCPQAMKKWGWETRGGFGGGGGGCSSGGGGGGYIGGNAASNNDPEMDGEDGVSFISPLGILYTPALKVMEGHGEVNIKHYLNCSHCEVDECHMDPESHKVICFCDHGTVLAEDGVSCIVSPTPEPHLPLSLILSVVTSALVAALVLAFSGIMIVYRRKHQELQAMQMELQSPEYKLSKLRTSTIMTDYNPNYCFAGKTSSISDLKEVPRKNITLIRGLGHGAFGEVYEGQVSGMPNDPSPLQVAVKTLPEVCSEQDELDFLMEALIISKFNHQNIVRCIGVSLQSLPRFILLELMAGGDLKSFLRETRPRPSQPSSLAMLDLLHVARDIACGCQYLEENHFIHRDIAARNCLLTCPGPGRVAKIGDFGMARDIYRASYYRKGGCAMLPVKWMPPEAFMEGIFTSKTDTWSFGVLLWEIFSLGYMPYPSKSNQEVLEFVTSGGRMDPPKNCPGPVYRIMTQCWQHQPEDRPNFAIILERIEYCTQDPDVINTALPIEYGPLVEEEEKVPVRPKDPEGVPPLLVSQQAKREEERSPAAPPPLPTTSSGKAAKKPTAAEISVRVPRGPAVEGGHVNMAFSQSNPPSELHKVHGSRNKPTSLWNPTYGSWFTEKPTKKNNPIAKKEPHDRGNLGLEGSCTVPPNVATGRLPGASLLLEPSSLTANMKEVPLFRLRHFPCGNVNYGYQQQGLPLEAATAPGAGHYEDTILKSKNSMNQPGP
baculovirus-expressed JAK2 kinase, sequence (O60674 whole entry): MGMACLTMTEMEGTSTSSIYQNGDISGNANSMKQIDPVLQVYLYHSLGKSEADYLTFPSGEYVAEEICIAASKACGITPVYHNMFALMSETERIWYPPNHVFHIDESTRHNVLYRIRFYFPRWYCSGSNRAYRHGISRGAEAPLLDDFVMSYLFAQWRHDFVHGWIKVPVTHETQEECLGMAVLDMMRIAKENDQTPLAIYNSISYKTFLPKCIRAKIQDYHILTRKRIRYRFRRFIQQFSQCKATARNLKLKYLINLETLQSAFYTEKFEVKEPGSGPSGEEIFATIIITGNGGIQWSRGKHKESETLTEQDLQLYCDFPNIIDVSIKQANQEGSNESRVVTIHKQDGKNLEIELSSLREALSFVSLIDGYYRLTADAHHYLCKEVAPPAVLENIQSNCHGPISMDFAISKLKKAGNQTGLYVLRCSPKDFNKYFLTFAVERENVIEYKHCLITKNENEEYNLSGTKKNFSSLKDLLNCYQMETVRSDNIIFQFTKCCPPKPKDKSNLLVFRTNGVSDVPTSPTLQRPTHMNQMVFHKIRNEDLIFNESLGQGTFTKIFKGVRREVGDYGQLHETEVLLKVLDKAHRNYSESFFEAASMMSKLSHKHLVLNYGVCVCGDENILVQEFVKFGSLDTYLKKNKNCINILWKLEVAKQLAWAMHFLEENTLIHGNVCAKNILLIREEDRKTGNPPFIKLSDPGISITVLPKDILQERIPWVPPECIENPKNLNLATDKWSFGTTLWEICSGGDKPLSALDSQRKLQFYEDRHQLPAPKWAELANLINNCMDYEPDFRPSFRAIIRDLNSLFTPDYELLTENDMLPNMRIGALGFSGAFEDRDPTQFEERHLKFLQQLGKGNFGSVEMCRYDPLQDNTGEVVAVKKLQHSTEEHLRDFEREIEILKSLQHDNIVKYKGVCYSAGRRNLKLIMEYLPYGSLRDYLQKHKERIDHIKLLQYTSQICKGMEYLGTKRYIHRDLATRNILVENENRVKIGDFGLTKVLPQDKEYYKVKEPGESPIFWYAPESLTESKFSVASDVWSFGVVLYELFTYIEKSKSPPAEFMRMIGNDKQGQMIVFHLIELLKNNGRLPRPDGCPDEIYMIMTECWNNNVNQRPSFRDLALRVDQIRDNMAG

With `CC(O)CN1CCN(C(=O)c2ccc(-c3nc4c(N[C@H]5[C@@H](C(N)=O)[C@@H]6C=C[C@H]5C6)c(Cl)cnc4[nH]3)cc2)CC1` (stereo partly drawn) [Compound CCXXIV, (1S,2S,3R,4R)-3-(6-chloro-2-(4-(4-(2-hydroxypropyl)piperazine-1-carbonyl)phenyl)-3H-imidazo[4,5-b]pyridine-7-ylamino)pyridin[2.2.1]hept-5-ene-2-carboxamide], the melting point (in general, the temperature, or range, at which the solid turns liquid) turned out to be 224 °C. In data set [1], the IC50 was less than 100 nM. Also, the IC50 in data set [2] (setting [3]) is less than 100 nM.
For the compound `COc1ncccc1-c1nc2c(N[C@H]3[C@@H](C(N)=O)[C@@H]4C=C[C@H]3C4)c(Br)cnc2[nH]1` [Compound CI, (1S,2S,3R,4R)-3-[6-Bromo-2-(2-methoxy-pyridin-3-yl)-3H-imidazo[4,5-b]pyridin-7-ylamino]-bicyclo[2.2.1]hept-5-ene-2-carboxylic acid amide], the melting point is 201 °C. In data set [1], the IC50 was less than 100 nM. Further, in data set [2] (setting [3]), the IC50 was less than 100 nM.
Consider `COc1ccncc1-c1nc2c(N[C@H]3[C@@H](C(N)=O)[C@@H]4C=C[C@H]3C4)c(Br)cnc2[nH]1` [Compound CIII, (1S,2S,3R,4R)-3-[6-Bromo-2-(4-methoxy-pyridin-3-yl)-3H-imidazo[4,5-b]pyridin-7-ylamino]-bicyclo[2.2.1]hept-5-ene-2-carboxylic acid amide], for which the melting point worked out at 160 °C. Also, the IC50 in data set [1] is less than 100 nM. Moreover, the IC50 in data set [2] (setting [3]) lay within 100 to 1000 nM.
`NC(=O)[C@@H]1[C@H](Nc2c(Br)cnc3[nH]c(-c4ccc(N5CCOCC5)cc4)nc23)[C@H]2C=C[C@@H]1C2` [Compound LXXIX, (1S,2S,3R,4R)-3-[6-Bromo-2-(4-morpholin-4-yl-phenyl)-3H-imidazo[4,5-b]pyridin-7-ylamino]-bicyclo[2.2.1]hept-5-ene-2-carboxylic acid amide] returned a melting point of 283 to 284 °C. Moreover, in data set [2] (setting [3]), the IC50 is less than 100 nM.
As to `Cn1cc(-c2nc3c(N[C@H]4[C@@H](C(N)=O)[C@@H]5C=C[C@H]4C5)ccnc3[nH]2)cn1` [XCIV, (1S,2S,3R,4R)-3-[2-(1-Methyl-1H-pyrazol-4-yl)-3H-imidazo[4,5-b]pyridin-7-ylamino]-bicyclo[2.2.1]hept-5-ene-2-carboxylic acid amide], the melting point fell in the range of 236 to 238 °C. In addition, the IC50 in data set [1] is greater than 10000 nM. The IC50 in data set [2] (setting [3]) was 1000 to 10000 nM.
For the compound `NC(=O)[C@@H]1[C@H](Nc2c(Br)cnc3[nH]c(-c4ccc(CN5CCOCC5)cc4)nc23)[C@H]2C=C[C@@H]1C2` (as salt: sodium) [Compound LXXX, (1S,2S,3R,4R)-3-[6-Bromo-2-(4-morpholin-4-ylmethyl-phenyl)-3H-imidazo[4,5-b]pyridin-7-ylamino]-bicyclo[2.2.1]hept-5-ene-2-carboxylic acid amide], the melting point was 217 to 219 °C.
As for `CN1CCN(c2ccc(-c3nc4c(N[C@H]5[C@@H](C(N)=O)[C@@H]6C=C[C@H]5C6)c(Br)cnc4[nH]3)cc2)CC1` [Compound LXXVIII, (1S,2S,3R,4R)-3-{6-Bromo-2-[4-(4-methyl-piperazin-1-yl)-phenyl]-3H-imidazo[4,5-b]pyridin-7-ylamino}-bicyclo[2.2.1]hept-5-ene-2-carboxylic acid amide], the melting point lay within 215 to 218 °C. For the same compound, the IC50 in data set [2] (setting [3]) is less than 100 nM.
Take `Cn1cc(-c2nc3c(N[C@@]45CCC(C)(C(O)C4)C5(C)C)c(Cl)cnc3[nH]2)cn1` (stereo partly drawn) [Compound CCII, (4S)-4-(6-chloro-2-(1-methyl-1H-pyrazol-4-yl)-3H-imidazo[4,5-b]pyridin-7-ylamino)-1,7,7-trimethylbicyclo[2.2.1]heptan-2-ol]: the IC50 is greater than 10000 nM in data set [1] and less than 100 nM in data set [2] (setting [3]).
Taken in the same sequence, the figures for `CC(C)(C)OC(=O)N1CCC(c2nc3c(N[C@H]4[C@@H](C(N)=O)[C@@H]5C=C[C@H]4C5)c(Cl)cnc3[nH]2)CC1` [Compound CCXV, tert-butyl 4-(7-((1R,2R,3S,4S)-3-carbamoylbicyclo[2.2.1]hept-5-en-2-ylamino)-6-chloro-3H-imidazo[4,5-b]pyridin-2-yl)piperidine-1-carboxylate] were 1000 to 10000 nM and 1000 to 10000 nM.
On to `NC(=O)[C@@H]1[C@H](Nc2c(Cl)cnc3[nH]c(-c4ccc(OCCN5CCOCC5)cc4)nc23)[C@H]2C=C[C@@H]1C2` [Compound CCXXXIX, (1S,2S,3R,4R)-3-(6-chloro-2-(4-(2-morpholinoethoxy)phenyl)-3H-imidazo[4,5-b]pyridin-7-ylamino)bicyclo[2.2.1]hept-5-ene-2-carboxamide], for which the IC50 in data set [1] and in data set [2] (setting [3]) was less than 100 nM each time.
On to `COc1ccncc1-c1nc2c(N[C@H]3[C@@H](C(N)=O)[C@@H]4C=C[C@H]3C4)c(Cl)cnc2[nH]1` [Compound XXXV, (1S,2S,3R,4R)-3-[6-Chloro-2-(4-methoxy-pyridin-3-yl)-3H-imidazo[4,5-b]pyridine-7-ylamino]-bicyclo[2.2.1]hept-5-ene-2-carboxylic acid amide], for which the IC50 in data set [1] and in data set [2] (setting [3]) was 100 to 1000 nM each time.
Regarding `CC(=O)N1CCN(Cc2ccc(-c3nc4c(N[C@H]5[C@@H](C(N)=O)[C@@H]6C=C[C@H]5C6)c(Br)cnc4[nH]3)cc2)CC1` [Compound CLVI, (1S,2S,3R,4R)-3-{2-[4-(4-Acetyl-piperazin-1-ylmethyl)-phenyl]-6-bromo-3H-imidazo[4,5-b]pyridin-7-ylamino}-bicyclo[2.2.1]hept-5-ene-2-carboxylic acid amide], the IC50 in data set [1] and in data set [2] (setting [3]) was less than 100 nM throughout.
`NC(=O)[C@@H]1[C@H](Nc2c(Cl)cnc3[nH]c(-c4cccc(C(=O)N5CCNCC5)c4)nc23)[C@H]2C=C[C@@H]1C2` [Compound CCXIX, (1S,2S,3R,4R)-3-(6-chloro-2-(3-(piperazine-1-carbonyl)phenyl)-3H-imidazo[4,5-b]pyridin-7-ylamino)bicyclo[2.2.1]hept-5-ene-2-carboxamide]: the IC50 in data set [1] and in data set [2] (setting [3]) was less than 100 nM throughout.
For `NC(=O)[C@@H]1[C@H](Nc2c(Br)cnc3[nH]c(-c4ccnc(N5CCOCC5)c4)nc23)[C@H]2C=C[C@@H]1C2` [Compound CXXXVI, (1S,2S,3R,4R)-3-[6-Bromo-2-(2-morpholin-4-yl-pyridin-4-yl)-3H-imidazo[4,5-b]pyridin-7-ylamino]-bicyclo[2.2.1]hept-5-ene-2-carboxylic acid amide], the figures for the IC50 in data set [1] and in data set [2] (setting [3]) were 100 to 1000 nM and less than 100 nM, respectively.
Taken in the same sequence, the figures for `COc1cc(CN2CCOCC2)ccc1-c1nc2c(N[C@@H]3CCCC[C@H]3NS(C)(=O)=O)c(Cl)cnc2[nH]1` [Compound LXX, N-{(1R,2R)-2-[6-Chloro-2-(2-methoxy-4-morpholin-4-ylmethyl-phenyl)-3H-imidazo[4,5-b]pyridine-7-ylamino]-cyclohexyl}-methanesulfonamide] were less than 100 nM and 1000 to 10000 nM.
Regarding `COc1cc(N2CCOCC2)ccc1-c1nc2c(N3C[C@@H]4C[C@H]3CN4)c(Cl)cnc2[nH]1` [Compound XXXVII, 6-Chloro-7-(1S,4S)-2,5-diaza-bicyclo[2.2.1]hept-2-yl-2-(2-methoxy-4-morpholin-4-yl-phenyl)-3H-imidazo[4,5-b]pyridine hydrochloride], the IC50 is greater than 10000 nM in data set [1] and 1000 to 10000 nM in data set [2] (JAK2 Potency).
`COc1cc(CN2CCNCC2)ccc1-c1nc2c(N[C@H]3[C@@H](C(N)=O)[C@@H]4C=C[C@H]3C4)c(Cl)cnc2[nH]1` [Compound XLII, (1S,2S,3R,4R)-3-[6-Chloro-2-(2-methoxy-4-piperazin-1-ylmethyl-phenyl)-3H-imidazo[4,5-b]pyridine-7-ylamino]-bicyclo[2.2.1]hept-5-ene-2-carboxylic acid amide]: the IC50 in data set [1] is less than 100 nM; in data set [2] (setting [3]) it was 100 to 1000 nM.
Taken in the same sequence, the figures for `CN(C)CCOc1ccc(-c2nc3c(N[C@H]4[C@@H](C(N)=O)[C@@H]5C=C[C@H]4C5)c(Cl)cnc3[nH]2)cc1` [Compound CCXLIX, (1S,2S,3R,4R)-3-(6-chloro-2-(4-(2-(dimethylamino)ethoxy)phenyl)-3H-imidazo[4,5-b]pyridin-7-ylamino)bicyclo[2.2.1]hept-5-ene-2-carboxamide] were less than 100 nM and less than 100 nM.
Taken in the same sequence, the figures for `NC(=O)[C@@H]1[C@H](Nc2c(Cl)cnc3[nH]c(-c4cccc(C(=O)O)c4)nc23)[C@H]2C=C[C@@H]1C2` [Compound CCXVII, 3-(7-((1R,2R,3S,4S)-3-carbamoylbicyclo[2.2.1]hept-5-en-2-ylamino)-6-chloro-3H-imidazo[4,5-b]pyridin-2-yl)benzoic acid] were 1000 to 10000 nM and less than 100 nM.
Taken in the same sequence, the figures for `NC(=O)[C@@H]1[C@H](Nc2c(Cl)cnc3[nH]c(Nc4ccccc4)nc23)[C@H]2C=C[C@@H]1C2` [Compound LXVII, (1S,2S,3R,4R)-3-(6-Chloro-2-phenylamino-3H-imidazo[4,5-b]pyridine-7-ylamino)-bicyclo[2.2.1]hept-5-ene-2-carboxylic acid amide] were 100 to 1000 nM and less than 100 nM.
On to `CC(C)NC(=O)[C@@H]1[C@H](Nc2c(Cl)cnc3[nH]c(-c4sc(N5CCOCC5)nc4Cl)nc23)[C@H]2C=C[C@@H]1C2` [Compound CLXIII, (1S,2S,3R,4R)-3-[6-Chloro-2-(4-chloro-2-morpholin-4-yl-thiazol-5-yl)-3H-imidazo[4,5-b]pyridin-7-ylamino]-bicyclo[2.2.1]hept-5-ene-2-carboxylic acid isopropylamide], for which the IC50 in data set [1] was less than 100 nM; in data set [2] (setting [3]), greater than 10000 nM.
With `CN1CCC(Oc2ccc(-c3nc4c(N[C@H]5[C@@H](C(N)=O)[C@@H]6C=C[C@H]5C6)c(Cl)cnc4[nH]3)cc2)CC1` [Compound CCXLV, (1S,2S,3R,4R)-3-(6-chloro-2-(4-(1-methylpiperidin-4-yloxy)phenyl)-3H-imidazo[4,5-b]pyridin-7-ylamino)bicyclo[2.2.1]hept-5-ene-2-carboxamide], the IC50 in data set [1] and in data set [2] (setting [3]) was less than 100 nM in each case.
